Values after ≈ are worked out from the molar mass of the structure shown.
Experiments:
Assay in all cases: MIC, broth microdilution (NCCLS)
Type in all cases: cell-based
[1] = test system: Haemophilus influenzae Hain_2762; conditions: Table 10, Strain ID L (Table 8): Haemophilus influenzae Hain_2762; in µg/mL (unit assumed)
Description: (§1) Strains. The bacterial isolates listed in Table 8 were cultivated from −70° C. frozen stocks by two consecutive overnight passages (P1, P2) at 35° C. on 5% blood agar (Remel, Lenexa, Kans.). Chocolate agar (Remel) is used for Haemophilus influenzae. H. influenzae and Streptococcus pneumoniae are incubated in 5-10% CO2
(§2) Drug Stock Preparation. To determine the amount of solvent to be used to give the desired final concentration, the formula “weight obtained in mg/final concentration in mg/ml” will be used. It will give the amount of solvent in ml needed to be added to give the desired concentration. For example, if 2.5 mg/ml is the desired concentration and the weight of compound is 13.7 mg, then the amount of solvent to be added is […]. Methanol is used as the solvent to dissolve the test compounds. Further dilution of stock is done in sterile, deionized water. Drug stocks are kept frozen at −70° C., protected from light.
(§3) Susceptibility Testing. MICs are determined by the broth microdilution method in accordance with the NCCLS guidelines. In brief, organism suspensions are adjusted to a 0.5 McFarland standard to yield a final inoculum between 3×10^5 and 7×10^5 CFU/ml. Drug dilutions and inocula are made in sterile, cation adjusted Mueller-Hinton Broth (CAMHB) (Remel) for all but S. pneumoniae [CAMHB with 2-5% lysed horse blood (Remel)] and H. influenzae [Haemophilus Test Medium (Remel)]. An inoculum volume of 100 μl is added to wells containing 100 μl of broth with 2-fold serial dilutions of drug. All inoculated microdilution trays are incubated in ambient air at 35° C. for 18-24 hours, except for S. pneumoniae, and H. influenzae (both at 5-10% CO2).
(§4) Following appropriate incubation, the MIC is determined and the MIC is defined as the lowest concentration of the drug that prevented visible growth. […] Antibacterial activity of representative compounds of the invention were compared against telitromycin.

[2] = test system: Haemophilus influenzae Hain_953460299-3; conditions: Table 10, Strain ID K (Table 8): Haemophilus influenzae Hain_953460299-3; in µg/mL (unit assumed)
Description: as §1, §2, §3, §4

[3] = test system: Haemophilus influenzae Hain_960730503-3; conditions: Table 10, Strain ID I (Table 8): Haemophilus influenzae Hain_960730503-3; in µg/mL (unit assumed)
Description: as §1, §2, §3, §4

[4] = test system: Haemophilus influenzae Hain_960820544-3; conditions: Table 10, Strain ID J (Table 8): Haemophilus influenzae Hain_960820544-3; in µg/mL (unit assumed)
Description: as §1, §2, §3, §4

[5] = test system: Enterococcus faecalis Enfa_bc 11148-2; conditions: Table 10, Strain ID F (Table 8): Enterococcus faecalis Enfa_bc 11148-2; in µg/mL (unit assumed)
Description: as §1, §2, §3, §4

[6] = test system: Staphylococcus aureus Stau_33591; conditions: Table 10, Strain ID B (Table 8): Staphylococcus aureus Stau_33591; unit assumed
Description: as §1, §2, §3, §4

[7] = test system: Streptococcus pneumoniae Stpn_49619; conditions: Table 10, Strain ID M (Table 8): Streptococcus pneumoniae Stpn_49619
In short: (§5)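 NCCLS broth microdilution with 2-fold serial drug dilutions (methanol stocks diluted in water); inoculum 3×10^5–7×10^5 CFU/ml in CAMHB, with 2-5% lysed horse blood for S. pneumoniae. Incubation 18-24 h at 35° C., ambient air, except S. pneumoniae (5-10% CO2). MIC is lowest concentration preventing visible growth.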

[8] = test system: Streptococcus pneumoniae Stpn_Mef 5654; conditions: Table 10, Strain ID P (Table 8): Streptococcus pneumoniae Stpn_Mef 5654; in µg/mL (unit assumed)
In short: as §5

[9] = test system: Streptococcus pneumoniae Stpn_280-962; conditions: Table 10, Strain ID O (Table 8): Streptococcus pneumoniae Stpn_280-962
In short: as §5

[10] = test system: Streptococcus pneumoniae Stpn_297-749; conditions: Table 10, Strain ID N (Table 8): Streptococcus pneumoniae Stpn_297-749
In short: as §5

[11] = test system: Staphylococcus aureus Stau_29213; conditions: Table 10, Strain ID A (Table 8): Staphylococcus aureus Stau_29213; in µg/mL (unit assumed)
In short: as §5

[12] = test system: Enterococcus faecalis Enfa_29212; conditions: Table 10, Strain ID E (Table 8): Enterococcus faecalis Enfa_29212; in µg/mL (unit assumed)
In short: as §5

[13] = test system: Streptococcus pneumoniae Stpn_Erm S 4297; conditions: Table 10, Strain ID R (Table 8): Streptococcus pneumoniae Stpn_Erm S 4297
In short: as §5

[14] = test system: Staphylococcus epidermidis Step_f50654; conditions: Table 10, Strain ID D (Table 8): Staphylococcus epidermidis Step_f50654; in µg/mL (unit assumed)
In short: as §5

[15] = test system: Streptococcus pneumoniae Stpn_Mef S 3427; conditions: Table 10, Strain ID Q (Table 8): Streptococcus pneumoniae Stpn_Mef S 3427; in µg/mL (unit assumed)
In short: as §5

[16] = test system: Haemophilus influenzae Hain_49247; conditions: Table 10, Strain ID H (Table 8): Haemophilus influenzae Hain_49247; unit assumed
[17] = test system: Staphylococcus epidermidis Step_14990; conditions: Table 10, Strain ID C (Table 8): Staphylococcus epidermidis Step_14990; in µg/mL (unit assumed)
In short: as §5

[18] = test system: Streptococcus pyogenes Stpy_8668; conditions: Table 10, Strain ID G (Table 8): Streptococcus pyogenes Stpy_8668
In short: as §5

CC[C@H]1OC(=O)[C@H](C)C(=O)[C@H](C)[C@@H](OC2O[C@H](C)C[C@H](N(C)C)[C@H]2O)[C@@](C)(OC)C[C@@H](C)C(=O)[C@H](C)[C@H]2N(CCCCn3cnc(-c4ccc(C)nc4)c3)C(=O)O[C@]12CC (stereo partly drawn) [XIII]
MIC [1]: 1.56 | MIC [2]: 6.25 | MIC [3]: 6.25 | MIC [4]: 6.25 | MIC [5]: 3.13 | MIC [6]: > 50 µg/mL | MIC [7]: =0.05 | MIC [8]: 0.78 | MIC [9]: =0.05 | MIC [10]: =0.05 | MIC [11]: 0.4 | MIC [12]: 0.2 | MIC ([13]; unit assumed): 0.2 µg/mL (≈ 0.238 µM) | MIC [14]: 0.4 | MIC [15]: 0.2 | MIC [16]: 6.25 µg/mL (≈ 7.44 µM) | MIC [17]: 0.2 | MIC [18]: =0.05

C=C[C@]12OC(=O)N(CCCCn3cnc(-c4ccc(F)nc4)c3)[C@@H]1[C@@H](C)C(=O)[C@H](C)C[C@](C)(OC)[C@H](OC1O[C@H](C)C[C@H](N(C)C)[C@H]1O)[C@@H](C)C(=O)[C@@H](C)C(=O)O[C@@H]2CC (stereo partly drawn) [XIX]
MIC [1]: 1.56 | MIC [2]: 6.25 | MIC [3]: 12.5 | MIC [4]: 6.25 | MIC [5]: 0.4 | MIC [6]: > 50 µg/mL | MIC [7]: =0.05 | MIC [8]: 0.4 | MIC [9]: =0.05 | MIC [10]: =0.05 | MIC [11]: 0.1 | MIC [12]: 0.1 | MIC [13]: =0.05 | MIC [14]: 0.1 | MIC [15]: 0.1 | MIC [16]: 3.13 µg/mL (≈ 3.72 µM) | MIC [17]: 0.1 | MIC [18]: =0.05

CC[C@H]1OC(=O)[C@H](C)C(=O)[C@H](C)[C@@H](OC2O[C@H](C)C[C@H](N(C)C)[C@H]2O)[C@@](C)(OC)C[C@@H](C)C(=O)[C@H](C)[C@H]2N(CCCCn3cnc(-c4ccc(OC)nc4)c3)C(=O)O[C@]12CC (stereo partly drawn) [XVII]
MIC [1]: 1.56 | MIC [2]: 12.5 | MIC [3]: 6.25 | MIC [4]: 12.5 | MIC [5]: 3.13 | MIC [6]: > 50 µg/mL | MIC [7]: =0.05 | MIC [8]: 0.78 | MIC [9]: =0.05 | MIC [10]: =0.05 | MIC [11]: 0.2 | MIC [12]: 0.1 | MIC ([13]; unit assumed): 0.2 µg/mL (≈ 0.234 µM) | MIC [14]: 0.2 | MIC [15]: 0.2 | MIC [16]: 6.25 µg/mL (≈ 7.3 µM) | MIC [17]: 0.4 | MIC [18]: =0.05

CC[C@H]1OC(=O)[C@H](C)C(=O)[C@H](C)[C@@H](OC2O[C@H](C)C[C@H](N(C)C)[C@H]2O)[C@@](C)(OC)C[C@@H](C)C(=O)[C@H](C)[C@H]2N(CCCCn3cnc(-c4ccc(F)nc4)c3)C(=O)O[C@]12CC (stereo partly drawn) [XV]
MIC [1]: 0.78 | MIC [2]: 3.13 | MIC [3]: 6.25 | MIC [4]: 6.25 | MIC [5]: 0.78 | MIC [6]: > 50 µg/mL | MIC [7]: =0.05 | MIC [8]: 0.4 | MIC [9]: =0.05 | MIC [10]: =0.05 | MIC [11]: 0.4 | MIC [12]: 0.1 | MIC ([13]; unit assumed): 0.1 µg/mL (≈ 0.118 µM) | MIC [14]: 0.2 | MIC [15]: 0.1 | MIC [16]: 3.13 µg/mL (≈ 3.71 µM) | MIC [17]: 0.2 | MIC [18]: =0.05

C=C[C@]12OC(=O)N(CCCCn3cnc(-c4ccc(OCC)nc4)c3)[C@@H]1[C@@H](C)C(=O)[C@H](C)C[C@](C)(OC)[C@H](OC1O[C@H](C)C[C@H](N(C)C)[C@H]1O)[C@@H](C)C(=O)[C@@H](C)C(=O)O[C@@H]2CC (stereo partly drawn) [XXII]
MIC [1]: 1.56 | MIC [2]: 12.5 | MIC [3]: 6.25 | MIC [4]: 3.13 | MIC [5]: 25 | MIC [6]: > 50 µg/mL | MIC [7]: =0.05 | MIC [8]: 0.78 | MIC [9]: =0.05 | MIC [10]: =0.05 | MIC [11]: 0.4 | MIC [12]: 0.2 | MIC ([13]; unit assumed): 1.56 µg/mL (≈ 1.8 µM) | MIC [14]: 0.4 | MIC [15]: 0.78 | MIC [16]: 6.25 µg/mL (≈ 7.2 µM) | MIC [17]: 0.4 | MIC ([18]; unit assumed): 0.1 µg/mL (≈ 0.115 µM)

C=C[C@]12OC(=O)N(CCCCn3cc(-c4ccc(OC)nc4)nc3C)[C@@H]1[C@@H](C)C(=O)[C@H](C)C[C@](C)(OC)[C@H](OC1O[C@H](C)C[C@H](N(C)C)[C@H]1O)[C@@H](C)C(=O)[C@@H](C)C(=O)O[C@@H]2CC (stereo partly drawn) [XXVII]
MIC [1]: 1.56 | MIC [2]: 12.5 | MIC [3]: 12.5 | MIC [4]: 6.25 | MIC [5]: 6.25 | MIC [6]: > 50 µg/mL | MIC [7]: =0.05 | MIC [8]: 1.56 | MIC [9]: =0.05 | MIC [10]: =0.05 | MIC [11]: 0.2 | MIC [12]: 0.2 | MIC [14]: 0.2 | MIC [15]: 0.2 | MIC [16]: 6.25 µg/mL (≈ 7.2 µM) | MIC [17]: 0.2 | MIC ([18]; unit assumed): 0.1 µg/mL (≈ 0.115 µM)

C=C[C@]12OC(=O)N(CCCCn3cnc(-c4ccc(OC)nc4)c3C)[C@@H]1[C@@H](C)C(=O)[C@H](C)C[C@](C)(OC)[C@H](OC1O[C@H](C)C[C@H](N(C)C)[C@H]1O)[C@@H](C)C(=O)[C@@H](C)C(=O)O[C@@H]2CC (stereo partly drawn) [XXVI]
MIC [1]: 1.56 | MIC [2]: 12.5 | MIC [3]: 12.5 | MIC [4]: 12.5 | MIC [5]: 1.56 | MIC [6]: > 50 µg/mL | MIC [7]: =0.05 | MIC [8]: 1.56 | MIC [9]: =0.05 | MIC [10]: =0.05 | MIC [11]: 0.2 | MIC [12]: 0.2 | MIC [14]: 0.4 | MIC [15]: 0.2 | MIC [16]: 6.25 µg/mL (≈ 7.2 µM) | MIC [17]: 0.1 | MIC ([18]; unit assumed): 0.1 µg/mL (≈ 0.115 µM)

CC[C@H]1OC(=O)[C@H](C)C(=O)[C@H](C)[C@@H](OC2O[C@H](C)C[C@H](N(C)C)[C@H]2O)[C@@](C)(OC)C[C@@H](C)C(=O)[C@H](C)[C@@H]2[C@@H]1OC(=O)N2CCCCn1cnc(-c2ccc(C)nc2)c1 (stereo partly drawn) [XXV]
MIC [1]: 1.56 | MIC [2]: 6.25 | MIC [3]: 6.25 | MIC [4]: 6.25 | MIC [5]: 3.13 | MIC [6]: > 50 µg/mL | MIC [7]: =0.05 | MIC [8]: 1.56 | MIC [9]: =0.05 | MIC [10]: =0.05 | MIC [11]: 0.2 | MIC [12]: 0.1 | MIC [14]: 0.2 | MIC [15]: .04 | MIC [16]: 3.13 µg/mL (≈ 3.85 µM) | MIC [17]: 0.2 | MIC [18]: =0.05

Reference: patent US7332476B2, “Pyridyl substituted ketolide antibiotics” (Novartis AG, priority 2003, dated 2008)
